Measurements as given in EPA's ToxValDB 9.5 (doi:10.2903/j.efsa.2017.4981).
Several values for one entry are separate records, joined by “and”; a condition that tells them apart may be missing. Identical values can stand only once.

How the values were obtained:
[1] = system: Folsomia candida; conditions: chronic/long-term; duration: 28 days; mortality
[2] = system: Tagia sp.; conditions: chronic/long-term, duration: 56 days
[3] = system: Canidae; conditions: oral, Dog Other, body weight
[4] = system: Rattus norvegicus; conditions: for LD50: acute, mortality
[5] = system: Apis mellifera; conditions: acute, duration: 48 hours, mortality
[6] = system: Anas platyrhynchos; conditions: reproductive
[7] = system: Typhlodromus pyri; conditions: acute; mortality
[8] = system: Daphnia magna; conditions: chronic/long-term; duration: 21 days; reproduction
[9] = system: Colinus virginianus
[10] = system: Plant; conditions: chronic/long-term; duration: 4 months
[11] = system: Oncorhynchus mykiss; conditions: mortality
[12] = chronic, duration: 2 years, oral, diet, organ weight
[13] = reproduction developmental, reproduction
[14] = subchronic, duration: 90 days, oral, diet, F, organ weight

CCOCCN(C(C)=O)C(=C(C)C)c1ccccc1
NOEC [1]: 50 mg/kg | NOEC ([2]; growth): 30 mg/kg | NOAEL ([3]; subchronic, duration: 90 days): 8 mg/kg-day | NOAEL [4, 12]: 1 mg/kg-day | NOAEL [4, 13]: 8 mg/kg-day | NOAEL [4, 14]: 8 mg/kg-day

CCOCCN(C(=O)CS(=O)(=O)O)C(=C(C)C)c1ccccc1
NOEC [1]: 93.3 mg/kg | NOEC ([2]; growth): 100 mg/kg | LD50 ([4]; oral): > 2000 mg/kg-day | NOAEL ([4]; short-term, duration: 4 weeks, oral, diet): 410 mg/kg-day

CC(C)=C(c1ccccc1)N(CC(=O)O)C(=O)CS(=O)(=O)O [N-(2-Methyl-1-phenylprop-1-en-1-yl)-N-(sulfoacetyl)glycine]
NOEC [1]: 100 mg/kg | NOEC ([2]; growth): 60 mg/kg

CCOCCN(C(=O)CCl)C(=C(C)C)c1ccccc1 [Pethoxamid]
LD50 ([5]; dermal): > 200 µg/piece | LD50 ([5]; oral, unspecified): > 200 µg/piece | NOEL [6]: 396 mg/kg-day | LEC [7]: ≤ 1200 g/ha | NOEC [8]: 2.8 mg/L | LD50 ([9]; acute, oral, mortality): 872 mg/kg-day | NOEL ([9]; reproduction developmental): 100 mg/kg-day | NOEC ([2]; reproduction): 0.8 mg/kg | NOAEC [10]: 8 µg/L | LC50 ([11]; acute, duration: 96 hours): 2.2 µg/mL and 2.19 µg/mL | NOEC ([11]; chronic/long-term, duration: 94 days): 0.0924 mg/L | NOAEL ([3]; chronic, duration: 1 years): 2 mg/kg-day | NOAEL ([3]; subchronic, duration: 90 days): 8 mg/kg-day | LD50 ([4]; oral, M): 983 mg/kg-day | NOAEL [4, 12]: 1 mg/kg-day | NOAEL ([4]; reproduction developmental, oral, diet, F, reproduction): 24 mg/kg-day | NOAEL [4, 13]: 8 mg/kg-day | NOAEL [4, 14]: 8 mg/kg-day
